Assay [1] relates to Cystalysin. Briefly: Inhibition of bacterial virulence factor Cystalysin. As to conditions: at 200 uM for compounds, 0.001% for oils/extracts. In kind it is biochemical, P. gingivalis. The text has this:
(§1) P. gingivalis is a gram-negative anaerobe implicated in periodontal disease in humans and companion animals. P. gingivalis infects the gingival sulcus, producing a number of virulence factors including bacterial enzymes such as gingipains, METase and Cystalysin. Gingipains act on several immune system molecules, including kinogens, complement factors, immunoglobins, resulting in fluid influx into the sulcus, neutrophil recruitment, and bleeding. The ultimate result is a host inflammatory response characterized by cyclooxygenase (COX) induction, metalloproteinase (MMP) expression, prostaglandin elevation and reactive oxygen elevations which result in tissue damage and bone resorption, eventually leading to tooth detachment. MMP's (including various subtypes, e.g., MMP 1, 2, 3, 8, 9, 12, 13), are host extracellular matrix proteases that contribute to tissue destruction and remodeling. COX enzymes catalyze the conversion of arachidonic acid into prostaglandins, which result in vasodilation, redness, puffiness and pain.
(§2) Inhibition of the proteolytic action of gingipains on immuno-regulatory proteins should lead to a reduction in the inflammatory host-response and subsequent tissue damage. Other bacterial enzymes, for example, METase and Cystalysin, are involved in degrading sulfur-containing amino acids to produce volatile sulfur compounds (VSC's) such as hydrogen sulfide or methyl mercaptan that lead to bad breath or oral malodor. Inhibition of METase and Cystalysin is thus an important function for oral care agents as are inhibitory activities against key host pro-inflammatory factors including matrix metalloproteinases (MMP's), cyclooxygenases (COX) and prostaglandin (PGE2).
(§3) Where no data are reported is not an indication that the compound/active has no activity; rather that the compound was not tested for that activity.

Assay [2] has as its system Gingipain. Briefly: Inhibition of bacterial virulence factor Gingipain. The format is biochemical, P. gingivalis. The following applies: at 200 uM for compounds, 0.001% for oils/extracts.
Source text: as §1, §3

Assay [3] concerns MMP (2, 3, 12). Briefly: Inhibition of host inflammation factor MMP (2, 3, 12). As to conditions: at 200 uM for compounds, 0.001% for oils/extracts. The format is biochemical.
Source text: as §1, §3

Assay [4] relates to oral anaerobic bacterial biofilm containing Fusobacterium nucleatum. Briefly: In vitro biofilm growth inhibition model (30 second exposure, MIC). As to conditions: lowest concentration that completely inhibited biofilm growth following a 30 second exposure. The format is cell-based. The procedure:
The method involves forming a bacterial biofilm in a plastic uncoated 12-well tissue culture plate. The culture material is removed from the wells and the biofilm is treated with a test solution or appropriate control usually for 30 seconds. Subsequently, the biofilm is washed twice with sterile saline and fresh medium is placed on the biofilm which is then incubated at 37° C. overnight. The next day, the culture in each well is suspended and the optical density determined to assess biofilm growth.

Assay [5] has as its target T1, COX-2 (Homo sapiens, UniProt P35354).
T1 sequence (P35354 18-604): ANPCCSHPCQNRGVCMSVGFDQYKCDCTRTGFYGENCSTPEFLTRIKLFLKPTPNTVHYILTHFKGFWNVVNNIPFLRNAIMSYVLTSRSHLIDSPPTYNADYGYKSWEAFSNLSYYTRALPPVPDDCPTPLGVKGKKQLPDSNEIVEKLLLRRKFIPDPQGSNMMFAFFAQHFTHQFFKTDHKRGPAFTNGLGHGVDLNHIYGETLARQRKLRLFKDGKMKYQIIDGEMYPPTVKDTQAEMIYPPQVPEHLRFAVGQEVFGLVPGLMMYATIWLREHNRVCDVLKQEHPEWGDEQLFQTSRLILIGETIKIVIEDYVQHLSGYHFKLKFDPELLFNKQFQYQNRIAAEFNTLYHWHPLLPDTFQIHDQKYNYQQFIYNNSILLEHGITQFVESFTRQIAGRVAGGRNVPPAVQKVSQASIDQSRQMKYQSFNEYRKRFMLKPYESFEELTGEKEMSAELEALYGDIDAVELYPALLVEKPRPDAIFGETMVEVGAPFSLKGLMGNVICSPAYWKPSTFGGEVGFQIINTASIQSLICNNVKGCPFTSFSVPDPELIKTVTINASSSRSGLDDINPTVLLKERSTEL
Briefly: Inhibition of host inflammation factor COX-2. The following applies: read-out: COX-2 % inhibition. The format is biochemical.
Source text: as §1, §3

Assay [6] has as its target METase (Porphyromonas gingivalis, UniProt Q7MX71). Briefly: Inhibition of bacterial virulence factor METase. As to conditions: read-out: METase % inhibition. The format is biochemical, P. gingivalis.
Source text: as §1, §2, §3

Assay [7] concerns PGE2. Briefly: Inhibition of host inflammation factor PGE2. The following applies: read-out: PGE2 % inhibition. In kind it is cell-based.
Source text: as §2, §3

For assay [8], the system named is Gram Negative Anaerobes (GNA). As to the kind of experiment: Plaque Chip Assay (PCA), Gram Negative Anaerobes count. The following applies: vs. water. In kind it is cell-based, oral bacteria from whole saliva of healthy human donors. The procedure: (§4) In further studies, individual essential oil compounds and blends were evaluated for germ kill efficacy against oral anaerobes. For comparison, a cetyl pyridinium chloride solution (350 ppm) and a commercially available essential oil mouthrinse (Listerine® Cool Mint with ˜0.258% essential oil level) were tested.
(§5) Aqueous solutions (comprising 1% poloxamer 407 and 15% ethanol) were prepared with the essential oil load fixed at 0.15%. […] The test solutions were used neat in this experiment. The essential oil compounds and blends were tested using the Plaque Chip Assay (PCA) method, developed in the Procter & Gamble laboratories. The PCA method measures a combination of the following parameters: antibacterial efficacy (bacteria or germ kill), biofilm dispersion efficacy/chemical removal (chemical cleaning, e.g., detergency without germ kill), biofilm prevention and/or inhibition efficacy (prevention of biofilm growth) and active substantivity (cumulative efficacy).
(§6) The PCA method uses unmodified, whole saliva (obtained from multiple healthy human donors) to grow a biofilm containing relevant oral species on the surface of hydroxyapatite (HA) discs (the ‘chip’) mounted in the cap of plastic tubes (Nunc™ Cryovial). HA chips are subjected to five one-minute treatment and re-growth cycles, designed to mimic typical oral care product usage (dentifrice, rinse, gel) over a 2½ day period. Fresh saliva is replaced after each treatment, wherein the saliva used serves both as an inoculum of relevant oral bacteria, and as a nutrient source for the growth of the biofilm. Sixteen hours after the final treatment cycle, the biofilm remaining on the chip is removed, and the number of viable bacteria contained within it are measured by standard agar plate counting on ETSA (Enriched Trypticase Soy Agar) and ETSA-NV (Enriched Trypticase Soy Agar Supplemented with Nalidixic Acid and Vancomycin) media. The number of colony forming units per unit volume (cfu/ml) is measured for Total Facultative Anaerobes (TFA) and Gram Negative Anaerobes (GNA). Results are summarized in Table 3 below reported as Log Reduction in TFA and GNA colony forming units provided by test formulations vs. control, i.e., water or base aqueous solution (comprising 1% poloxamer 407 and 15% ethanol). Reductions in TFA or GNA bacterial counts vs. control are reasonably predictive of in vivo efficacy, in particular plaque removal efficacy and breath malodor reduction. […] Particularly for blends containing 3 or more components, the relative amounts of each component can be adjusted to provide the best germ kill efficacy along with the desired flavor profile.

Assay [9] relates to Total Facultative Anaerobes (TFA). As to the kind of experiment: Plaque Chip Assay (PCA), Total Facultative Anaerobes count. The format is cell-based, oral bacteria from whole saliva of healthy human donors. The following applies: vs. water. The protocol: as §4, §5, §6
Assay [10] deals with COX-1 (Homo sapiens, UniProt P23219). As to the kind of experiment: Inhibition of host inflammation factor COX-1. In kind it is biochemical. The following applies: at 200 uM for compounds, 0.001% for oils/extracts.
[11] abbreviates: essential oil at 0.15% solution, five one-minute treatments.
Where [12] appears, read: at 200 uM for compounds, 0.001% for oils/extracts.

These results are taken from patent US20080253976A1, “Personal Care Compositions Comprising An Antimicrobial Blend of Essential Oils or Constituents Thereof” (priority 2007, published 2008).

Like-named read-outs stand apart in the source and are kept apart here. Some results are limits rather than exact numbers.

Chain of METase (Q7MX71 whole entry): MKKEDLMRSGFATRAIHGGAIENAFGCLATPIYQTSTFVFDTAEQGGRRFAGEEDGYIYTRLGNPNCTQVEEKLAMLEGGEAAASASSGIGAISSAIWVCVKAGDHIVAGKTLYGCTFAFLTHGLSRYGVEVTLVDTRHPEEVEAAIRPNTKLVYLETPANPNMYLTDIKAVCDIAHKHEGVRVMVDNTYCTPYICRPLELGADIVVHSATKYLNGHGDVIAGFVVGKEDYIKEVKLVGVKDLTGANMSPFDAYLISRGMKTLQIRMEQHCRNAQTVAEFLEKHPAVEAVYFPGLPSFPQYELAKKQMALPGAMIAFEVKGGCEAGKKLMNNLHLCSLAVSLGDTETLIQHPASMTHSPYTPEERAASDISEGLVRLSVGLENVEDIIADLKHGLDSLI
Chain of COX-1 (P23219 24-599): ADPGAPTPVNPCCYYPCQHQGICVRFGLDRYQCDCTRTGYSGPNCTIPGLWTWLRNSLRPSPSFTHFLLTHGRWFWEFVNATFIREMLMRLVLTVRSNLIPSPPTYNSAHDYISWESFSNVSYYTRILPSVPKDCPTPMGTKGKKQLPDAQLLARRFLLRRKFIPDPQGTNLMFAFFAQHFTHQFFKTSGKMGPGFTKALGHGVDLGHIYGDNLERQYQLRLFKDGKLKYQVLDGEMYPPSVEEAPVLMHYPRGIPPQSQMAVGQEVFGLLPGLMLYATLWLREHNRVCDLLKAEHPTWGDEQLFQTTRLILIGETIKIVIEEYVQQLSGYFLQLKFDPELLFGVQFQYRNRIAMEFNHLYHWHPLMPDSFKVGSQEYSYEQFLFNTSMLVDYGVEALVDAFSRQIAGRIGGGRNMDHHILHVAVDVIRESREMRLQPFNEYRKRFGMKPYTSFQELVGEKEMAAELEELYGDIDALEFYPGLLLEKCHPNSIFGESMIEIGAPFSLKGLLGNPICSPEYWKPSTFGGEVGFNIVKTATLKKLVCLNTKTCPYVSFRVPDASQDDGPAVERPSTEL

Turning to `Cc1ccc(C(C)C)cc1O` [Carvacrol], in [1], the Cystalysin % inhibition entry is “+ (% inhibition <25% at 200 uM for compounds, 0.001% for oils/extracts)”. Also, in [2], the Gingipain % inhibition result is given as “+ (% inhibition <25% at 200 uM for compounds, 0.001% for oils/extracts)”. In addition, the “MMP (2, 3, 12) % inhibition” value in assay [3] is listed as “+ (% inhibition <25% at 200 uM for compounds, 0.001% for oils/extracts)”. Also, in [4], the “Total Oil Level Inhibiting Biofilm Growth (MIC), single component” value came to 0.1%. Further, the inhibition – broadly, the share of the control response that was lost under treatment – at 200 µM in assay [5] was > 25%; in assay [6] it was < 25%; in assay [7], > 75%. Besides, the “Log Reduction in cfu/ml vs Control, GNA” value in assay [8] (setting [11]) is on record as 0.42 log cfu/ml. Moreover, the “Log Reduction in cfu/ml vs Control, TFA” value in [9] (setting [11]) is 0.08 log cfu/ml.
`CCCCCCCCCCCCCCCC[n+]1ccccc1` [Cetylpyridinium Chloride (CPC), Cetylpyridinium Chloride, reference compound]: the “Log Reduction in cfu/ml vs Control, GNA” value in assay [8] (350 ppm solution) is 1.31 log cfu/ml. Besides, in assay [9] (350 ppm solution), the “Log Reduction in cfu/ml vs Control, TFA” value is on record as 1.45 log cfu/ml.
`CC(C)=CCCC(C)=CC=O` [Citral]: in assay [2], the Gingipain % inhibition entry was “+ (% inhibition <25% at 200 uM for compounds, 0.001% for oils/extracts)”. For the same compound, the “MMP (2, 3, 12) % inhibition” value in assay [3] was “+ (% inhibition <25% at 200 uM for compounds, 0.001% for oils/extracts)”. In assay [4], the “Total Oil Level Inhibiting Biofilm Growth (MIC), single component” value was 0.2%. Further, the inhibition at 200 µM in [6] is < 25%; in assay [7] (setting [12]) it was > 50%. For the same compound, the “Log Reduction in cfu/ml vs Control, GNA” value in assay [8] (setting [11]) stood at 0.72 log cfu/ml. Besides, the “Log Reduction in cfu/ml vs Control, TFA” value in assay [9] (setting [11]) is recorded as 0.33 log cfu/ml.
For `CC12CCC(CC1)C(C)(C)O2` [Eucalyptol], the Cystalysin % inhibition result in assay [1] is on record as “+ (% inhibition <25% at 200 uM for compounds, 0.001% for oils/extracts)”. In addition, in assay [2], the Gingipain % inhibition result is recorded as “+ (% inhibition <25% at 200 uM for compounds, 0.001% for oils/extracts)”. The “MMP (2, 3, 12) % inhibition” value in assay [3] was “+ (% inhibition <25% at 200 uM for compounds, 0.001% for oils/extracts)”. Moreover, the “Total Oil Level Inhibiting Biofilm Growth (MIC), single component” value in assay [4] is listed as 0.1%. Further, the inhibition at 200 µM in assay [6] is < 25%; in assay [7] (setting [12]), > 75%. Further, the “Log Reduction in cfu/ml vs Control, GNA” value in assay [8] (setting [11]) came to 0.38 log cfu/ml. Moreover, in assay [9] (setting [11]), the “Log Reduction in cfu/ml vs Control, TFA” value was −0.06 log cfu/ml.
Consider `C=CCc1ccc(O)c(OC)c1` [Eugenol], for which the Cystalysin % inhibition entry in assay [1] is “+ (% inhibition <25% at 200 uM for compounds, 0.001% for oils/extracts)”. Moreover, the Gingipain % inhibition result in assay [2] is listed as “+ (% inhibition <25% at 200 uM for compounds, 0.001% for oils/extracts)”. In assay [3], the “MMP (2, 3, 12) % inhibition” value is given as “+ (% inhibition <25% at 200 uM for compounds, 0.001% for oils/extracts)”. For the same compound, the “Total Oil Level Inhibiting Biofilm Growth (MIC), single component” value in [4] came to 0.2%. Besides, the inhibition at 200 µM in [5] was > 25%; in [6], < 25%; in [7], > 75%. Moreover, the “Log Reduction in cfu/ml vs Control, GNA” value in [8] (setting [11]) is recorded as 0.70 log cfu/ml. For the same compound, the “Log Reduction in cfu/ml vs Control, TFA” value in assay [9] (setting [11]) was found to be 0.09 log cfu/ml.
`CC(C)=CCC/C(C)=C/CO` [Geraniol]: in assay [1], the Cystalysin % inhibition entry is given as “+ (% inhibition <25% at 200 uM for compounds, 0.001% for oils/extracts)”. Further, the inhibition at 200 µM in assay [10] was > 50%; in [5] (setting [12]), > 25%; in assay [6], < 25%; in assay [7] (setting [12]), > 25%. For the same compound, the “MMP (2, 3, 12) % inhibition” value in [3] is on record as “+ (% inhibition <25% at 200 uM for compounds, 0.001% for oils/extracts)”. Further, in [4], the “Total Oil Level Inhibiting Biofilm Growth (MIC), single component” value is reported as 0.1%. Further, in assay [8] (setting [11]), the “Log Reduction in cfu/ml vs Control, GNA” value came out at 0.60 log cfu/ml. The “Log Reduction in cfu/ml vs Control, TFA” value in assay [9] (setting [11]) came to 0.47 log cfu/ml.
With `Cc1ccc(C(C)C)c(O)c1` [Thymol, reference compound], the “Total Oil Level Inhibiting Biofilm Growth (MIC), single component” value in assay [4] was found to be 0.1%.
